Data as given in US20130084287A1, “DIAGNOSTIC MARKERS” (GENENTECH, INC., priority 2011, published 2013).
Like-named read-outs stand apart in the source and are kept apart here.

Assays:
Type in all cases: cell-based
NSCLC cell lines [1] = assay: quantitative PCR of gene expression in 5-aza-dC-treated vs DMSO-treated NSCLC cell lines
Protocol: (§1) Cells were grown in RPMI 1640 supplemented with 10% fetal bovine serum and 2 mM L-Glutamine Cells were seeded on day 0 at 4000-9000 cells/cm2 and dosed with 1 μM 5-aza-2′-deoxycytidine (5-aza-dC) (SIGMA-ALDRICH Cat No. A3656) or DMSO control (Cat No. D2650) on days 1, 3, and 5. On day 6 cells were washed once in cold PBS and harvested by scraping in Trizol (Invitrogen, Cat No 15596018) and extracted for RNA or flash frozen for later RNA extraction. For induction of EMT, cells were plated at 20000-50000 cells/10 cm2 in complete medium and supplemented with 2 ng/mL human transforming growth factor beta 1 (TGFβ1) (R&D Systems, Cat No 100-B/CF) or PBS control. Media and TGFβ1 were replaced every 3 days, and RNA was extracted at 4-5 weeks following TGFβ1 induction of EMT. Gene expression changes were assessed using Taqman assays for the 20-gene EMT panel (FIG. 1).
To evaluate the role of methylation in regulating expression of the genes associated with select DMRs, quantitative PCR was carried out in a panel of 34 5-aza-2′-deoxycytidine (5-aza-dC) and dimethyl sulfoxide-treated NSCLC cell lines. […] From this group of genes, CLDN7 was selected as a representative marker of EMT and its methylation status was quantified by pyrosequencing in an extended panel of 42 cell lines.
In FIG. 5A, quantitative methylation was determined at 7 CpG sites by PyroMark analysis software using the equation: % methylation=(C peak height×100/C peak height+T peak height). Data are represented as the mean±SD percentage of methylation at 7 CpG sites. In FIG. 5B, relative expression of CLDN7 mRNA was determined using a standard ΔCt method in 42 (n=20 epithelial-like, 19 mesenchymal-like, 3 intermediate) DMSO-treated and 5-aza-dC-treated NSCLC cell lines. Expression values were calculated as a fold change in 5-aza-dC-treated relative to DMSO-treated control cells. Data are normalized to the housekeeping gene GAPDH and represented as the mean of 2 replicates. DMSO, dimethyl sulfoxide; GAPDH, glyceraldehyde-3-phosphate dehydrogenase.

NSCLC cell lines [2] = assay: erlotinib IC50 determination, Celltiter-Glo Luminescent Cell Viability Assay; conditions: for IC50: read-out: erlotinib sensitivity (IC50 class)
Protocol: For erlotinib IC50 determination, cells were plated in quadruplicate at 3×10^2 cells per well in 384-well plates in RPMI containing 0.5% FBS (assay medium) and incubated overnight. 24 hours later, cells were treated with assay medium containing 3 nM TGFα and erlotinib at a dose range of 10 μM-1 pM final concentration. After 72 hrs, cell viability was measured using the Celltiter-Glo Luminescent Cell Viability Assay (Promega). The concentration of erlotinib resulting in 50% inhibition of cell viability was calculated from a 4-parameter curve analysis and was determined from a minimum of two experiments.

NSCLC cell lines [3] = assay: TGFβ1 induction of EMT, 20-gene EMT expression panel and morphology; conditions: 2 cell lines, 2 ng/mL TGFβ1
Protocol: as §1
2 μl of total RNA was reverse-transcribed to cDNA and pre-amplified in a single reaction using Superscript III/Platinum Taq (Invitrogen) and Pre-amplification reaction mix (Invitrogen). 20 Taqman primer/probe sets selected for the EMT expression panel (FIG. 1) were included in the pre-amplification reaction at a final dilution of 0.05× original Taqman assay concentration (Applied Biosystems). […]
Pre-amplified cDNA was diluted 1.94-fold and then amplified using Taqman Universal PCR MasterMix (Applied Biosystems) on the BioMark BMK-M-96.96 platform (Fluidigm) according to the manufacturer's instructions. […] Two custom-designed reference genes that were previously evaluated for their expression stability across multiple cell lines, fresh-frozen tissue samples, and FFPE tissue samples, AL-1377271 and VPS-33B, were included in the expression panel. A mean of the Ct values for the two reference genes was calculated for each sample, and expression levels of EMT target genes were determined using the delta Ct (dCt) method as follows: Mean Ct (Target Gene)−Mean Ct (Reference Genes). […]

Nc1ncn([C@H]2C[C@H](O)[C@@H](CO)O2)c(=O)n1 [5-aza-dC, 5-aza-2′-deoxycytidine]
induction of CLDN7 expression (NSCLC cell lines [1]; majority of the epithelial-like cell lines, 1 μM 5-aza-dC): not induced further | induction of GRHL2, ESRP1, and CLDN7 transcripts (NSCLC cell lines [1]; mesenchymal-like versus epithelial-like lines, panel of 34 NSCLC cell lines): significant induction | induction of CLDN7 expression, fold change in 5-aza-dC-treated relative to DMSO-treated control cells (NSCLC cell lines [1]; nearly all mesenchymal-like lines, 1 μM 5-aza-dC, normalized to GAPDH): > 10 fold

C#Cc1cccc(Nc2ncnc3cc(OCCOC)c(OCCOC)cc23)c1 [erlotinib, [6,7-bis(2-methoxyethoxy)-4-quinazolin-4-yl]-(3-ethynylphenyl) amine]
IC50 (NSCLC cell lines [2]; 6 EGFR-mutant NSCLC cell lines): ≤ 2000 nM | IC50 (NSCLC cell lines [2]; 72 h, RERF-LC-MS cell line, 72 hrs, 3 nM TGFα): ≤ 2000 nM | erlotinib sensitivity (NSCLC cell lines [2]; H1993, MET amplification): resistance | IC50 (NSCLC cell lines [2]; Homo sapiens, NCI-H838, 72 h, H838 cell line, 72 hrs, 3 nM TGFα): ≤ 2000 nM | IC50 (NSCLC cell lines [2]; Homo sapiens, NCI-H2030, 72 h, H2030 cell line, 72 hrs, 3 nM TGFα): ≤ 2000 nM | IC50 (NSCLC cell lines [2]; Homo sapiens, SK-MES-1, 72 h, SK-MES-1 cell line, 72 hrs, 3 nM TGFα): ≤ 2000 nM | erlotinib sensitivity (NSCLC cell lines [2]; epithelial-like line H1975, T790M mutation in EGFR): resistance | IC50 (NSCLC cell lines [2]; nearly all mesenchymal-like lines): ≥ 8000 nM

TGFβ1: human transforming growth factor beta 1 (R&D Systems), used for induction of EMT
morphologic changes (NSCLC cell lines [3]): induced morphologic changes associated with an EMT | expression of genes associated with a mesenchymal phenotype (NSCLC cell lines [3]; 20-gene EMT panel): upregulated | expression of genes associated with an epithelial phenotype (NSCLC cell lines [3]; 20-gene EMT panel): downregulated
